Source: patent publication US5834453A, “Methods for the manufacture and use of antimicrobial sterol conjugates” (Lehigh University, priority 1997, dated 1998)
Values after ≈ are worked out from the molar mass of the structure shown. “Also recorded” adds a separate entry of the source.

Experiments:
A. fumigatus (H1120) = test: MIC, micro-broth dilution; assay type: cell-based; conditions: Aspergillus fumigatus, 35° C., 24 hours, read-out: ANTIMICROBIAL ACTIVITY (MIC)
How it was run: (§1)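 Broth microdilution in 0.5× trypticase soy broth with an inoculum of 10^6 /ml. Plates incubated for 24 hours at 35° C; endpoint is total absence of growth.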

C. albicans (90028) = test: MIC, micro-broth dilution; assay type: cell-based; conditions: Candida albicans, 35° C., 24 hours, read-out: ANTIMICROBIAL ACTIVITY (MIC)
How it was run: as §1

C. neoformans (M68979) = test: MIC, micro-broth dilution; assay type: cell-based; conditions: Cryptococcus neoformans, 24 h, read-out: ANTIMICROBIAL ACTIVITY (MIC)
How it was run: (§2)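 MIC = complete inhibition of growth; micro-broth dilution, 10^6 /ml inoculum, 0.5× trypticase soy broth, 35° C, 24 h.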

E. cloacae (13047) = test: MIC, micro-broth dilution; assay type: cell-based; conditions: Enterobacter cloacae, 35° C., 24 hours, read-out: ANTIMICROBIAL ACTIVITY (MIC)
How it was run: as §1

E. coli (25922) = test: MIC, micro-broth dilution; assay type: cell-based; conditions: Escherichia coli, 35° C., 24 hours, read-out: ANTIMICROBIAL ACTIVITY (MIC)
How it was run: as §1

E. faecalis (29212) = test: MIC, micro-broth dilution; assay type: cell-based; conditions: Enterococcus faecalis, 35° C., 24 hours, read-out: ANTIMICROBIAL ACTIVITY (MIC)
How it was run: as §1

E. faecium (T6480-9) = test: MIC, micro-broth dilution; assay type: cell-based; conditions: Enterococcus faecium, 35° C., 24 hours, read-out: ANTIMICROBIAL ACTIVITY (MIC)
How it was run: as §1

K. pneumoniae (13883) = test: MIC, micro-broth dilution; assay type: cell-based; conditions: Klebsiella pneumoniae, 24 h, read-out: ANTIMICROBIAL ACTIVITY (MIC)
How it was run: as §1

P. aeruginosa (10145) = test: MIC, micro-broth dilution; assay type: cell-based; conditions: Pseudomonas aeruginosa, 35° C., 24 hours, read-out: ANTIMICROBIAL ACTIVITY (MIC)
How it was run: as §1

P. aeruginosa (2853) = test: MIC, micro-broth dilution; assay type: cell-based; conditions: Pseudomonas aeruginosa, 24 h, read-out: ANTIMICROBIAL ACTIVITY (MIC)
How it was run: as §2

P. vulgaris (13315) = test: MIC, micro-broth dilution; assay type: cell-based; conditions: Proteus vulgaris, 35° C., 24 hours, read-out: ANTIMICROBIAL ACTIVITY (MIC)
How it was run: as §1

S. agalactiae (13813) = test: MIC, micro-broth dilution; assay type: cell-based; conditions: Streptococcus agalactiae, 35° C., 24 hours, read-out: ANTIMICROBIAL ACTIVITY (MIC)
How it was run: as §1

S. aureus (25923) = test: MIC, micro-broth dilution; assay type: cell-based; conditions: Staphylococcus aureus, 35° C., 24 hours, read-out: ANTIMICROBIAL ACTIVITY (MIC)
How it was run: as §1

S. aureus (29213) = test: MIC, micro-broth dilution; assay type: cell-based; conditions: Staphylococcus aureus, 24 h, read-out: ANTIMICROBIAL ACTIVITY (MIC)
How it was run: as §1

S. epidermidis (12228) = test: MIC, micro-broth dilution; assay type: cell-based; conditions: Staphylococcus epidermidis, 35° C., 24 hours, read-out: ANTIMICROBIAL ACTIVITY (MIC)
How it was run: as §1

S. marcescens (13880) = test: MIC, micro-broth dilution; assay type: cell-based; conditions: for MIC: Serratia marcescens, 24 h, read-out: ANTIMICROBIAL ACTIVITY (MIC)
How it was run: as §1

S. pneumoniae (6305) = test: MIC, micro-broth dilution; assay type: cell-based; conditions: Streptococcus pneumoniae, 35° C., 24 hours, read-out: ANTIMICROBIAL ACTIVITY (MIC)
How it was run: as §1

S. pyrogenes (19615) = test: MIC, micro-broth dilution; assay type: cell-based; conditions: 24 h, read-out: ANTIMICROBIAL ACTIVITY (MIC)
How it was run: as §2

[1] = Hemolytic activity, minimal hemolytic concentration (MHC); assay type: cell-based, sheep; conditions: sheep red blood cells, 24 hours at 37° C. in saline
Method: (§3) Hemolytic activity of the squalamine mimics according to the present invention were also studied by incubating sheep red blood cells for 24 hours at 37° C. in saline (final concentration of 0.5%) with or without respective concentrations of the squalamine mimics. The minimal hemolytic concentration (MHC) was determined as the lowest concentration of a mimic that raised visible hemolysis.

Aspergillus fumigatus = test: MIC against clinical isolates; assay type: cell-based; conditions: 24 h; clinical isolates of Aspergillus fumigatus
Method: (§4) The antimicrobial activity of the compounds according to the present invention were compared with the results obtained for squalamine as reported in Proc. Nat. Acad. Sci. USA 90:1354 (1993), supra, the disclosure of which is incorporated in toto herein. The data reported in the following table is the minimum inhibitory concentration (MIC) required for complete inhibition of microbial growth. The MIC was determined utilizing known micro-broth dilution methods in which inocula of 10^6 /ml of the test organism were incubated in 0.5× trypticase soy broth at 35° C. for 24 hours. MIC's were also tested under various pH conditions, with calcium chloride or magnesium chloride, or with immobilized horse serum.
(§5) The numbers in parentheses contained in the table correspond to accession numbers with the American Type Culture Collection (reference strains were either obtained from the American Type Culture Collection or from the Microbiology Laboratory at Memorial Sloan-Kettering Cancer Center; Bacterial strains were maintained on Columbia 5% sheep blood agar plates, and fungi were maintained on Sabouraud Dextrose agar plates).

Cryptococcus neoformans = test: MIC against clinical isolates; assay type: cell-based; conditions: 24 h; clinical isolates of Cryptococcus neoformans
Method: as §4, §5

A. fumigatus (H29709) = test: MIC, micro-broth dilution; assay type: cell-based; conditions: Aspergillus fumigatus, 35° C., 24 hours, read-out: ANTIMICROBIAL ACTIVITY (MIC)
How it was run: as §1

C. neoformans (90012) = test: MIC, micro-broth dilution; assay type: cell-based; conditions: Cryptococcus neoformans, 24 h, read-out: ANTIMICROBIAL ACTIVITY (MIC)
How it was run: as §2

S. aureus (H20809) = test: MIC, micro-broth dilution; assay type: cell-based; conditions: Staphylococcus aureus, 24 h, read-out: ANTIMICROBIAL ACTIVITY (MIC)
How it was run: as §1

sheep red blood cells = test: Hemolytic activity, minimal hemolytic concentration (MHC); assay type: cell-based
Method: as §3

Escherichia coli = test: Bactericidal action; assay type: cell-based
Pseudomonas aeruginosa = test: Bactericidal action; assay type: cell-based
Staphylococcus aureus = test: Bactericidal action; assay type: cell-based
gram negative rods [2] = test: Enhancement of the antimicrobial activity of rifampin; assay type: cell-based; conditions: subinhibitory concentrations of SM-7
[3] = tested on: various groups of microorganisms; test: Antimicrobial activity (MIC), all microorganisms tested; assay type: cell-based
Method: as §4, §5

bacteria = test: Loss of antimicrobial/bactericidal action in presence of albumin; assay type: cell-based; conditions: 12.5 μg/ml of SM-7, 40 mg/ml of bovine serum albumin
gram negative rods [4] = test: Antimicrobial activity (MIC), gram negative rods; assay type: cell-based; conditions: of all the mimics tested
Method: as §4

Row | Structure (SMILES) | MIC (A. fumigatus (H1120)) [µg/mL] | MIC (C. albicans (90028)) [µg/mL] | MIC (C. neoformans (M68979)) [µg/mL] | MIC (E. cloacae (13047)) [µg/mL] | MIC (E. coli (25922)) [µg/mL] | MIC (E. faecalis (29212)) [µg/mL] | MIC (E. faecium (T6480-9)) [µg/mL] | MIC (K. pneumoniae (13883)) [µg/mL] | MIC (P. aeruginosa (10145)) [µg/mL] | MIC (P. aeruginosa (2853)) [µg/mL] | MIC (P. vulgaris (13315)) [µg/mL] | MIC (S. agalactiae (13813)) [µg/mL] | MIC (S. aureus (25923)) [µg/mL] | MIC (S. aureus (29213)) [µg/mL] | MIC (S. epidermidis (12228)) [µg/mL] | MIC (S. marcescens (13880)) [µg/mL] | MIC (S. pneumoniae (6305)) [µg/mL] | MIC (S. pyrogenes (19615)) [µg/mL] | minimal hemolytic concentration (MHC) at 24 h [1] [µg/mL] | also measured
1 | C[C@H](C(=O)NCCCNCCCCNCCCN)[C@H]1CC[C@H]2[C@@H]3CC=C4C[C@@H](OS(=O)(=O)O)CC[C@]4(C)[C@H]3CC[C@]12C [SM-2, 23,24-bisnor-3β-ol-5-cholenic acid 3-sulfate spermine conjugate] | 12.5 (≈ 20.5 µM) | 12.5 (≈ 20.5 µM) | 3.13 (≈ 5.12 µM) | > 100 | 6.25 (≈ 10.2 µM) | > 100 | > 100 | 12.5 (≈ 20.5 µM) | 12.5 (≈ 20.5 µM) | 3.13 (≈ 5.12 µM) | > 100 | > 100 | 12.5 (≈ 20.5 µM) | > 100 | 3.13 (≈ 5.12 µM) | > 100 | > 100 | 6.25 (≈ 10.2 µM) | > 100 | MIC (Aspergillus fumigatus): 12.5 µg/mL (≈ 20.5 µM); MIC (Cryptococcus neoformans): 3.13 µg/mL (≈ 5.12 µM)
2 | C[C@H](CCC(=O)NCCCNCCCCNCCCN)[C@H]1CC[C@H]2[C@@H]3CC[C@@H]4C[C@H](O)CC[C@]4(C)[C@H]3C[C@H](O)[C@]12C [SM-7, deoxycholic acid-spermine conjugate] | 12.5 (≈ 21.7 µM) | 3.13 (≈ 5.43 µM) | 1.56 (≈ 2.7 µM) | 12.5 (≈ 21.7 µM) | 3.13 (≈ 5.43 µM) | 3.13 (≈ 5.43 µM) | 6.25 (≈ 10.8 µM) | 3.13 (≈ 5.43 µM) | 6.25 (≈ 10.8 µM) | 3.13 (≈ 5.43 µM) | 3.13 (≈ 5.43 µM) | 3.13 (≈ 5.43 µM) | 1.56 (≈ 2.7 µM) | 1.56 (≈ 2.7 µM) | 0.78 (≈ 1.35 µM) | 25 (≈ 43.3 µM) | 3.13 (≈ 5.43 µM) | 0.78 (≈ 1.35 µM) | 12.5 | MIC (A. fumigatus (H29709)): 12.5 µg/mL (≈ 21.7 µM); MIC (C. neoformans (90012)): 0.78 µg/mL (≈ 1.35 µM); MIC (S. aureus (H20809)): 1.56 µg/mL (≈ 2.7 µM); activity against S. marcescens (S. marcescens (13880); in words): found even against S. marcescens; also recorded: effective against S. marcescens; hemolytic activity (in words) (sheep red blood cells): unwanted hemolytic activity; antibacterial action (bactericidal) (Escherichia coli): bactericidal; antibacterial action (bactericidal) (Pseudomonas aeruginosa): bactericidal; antibacterial action (bactericidal) (Staphylococcus aureus): bactericidal; enhancement of antimicrobial activity of rifampin (gram negative rods [2]): markedly enhanced the antimicrobial activity of rifampin against gram negative rods; antimicrobial activity (in words) [3]: highly active; also recorded: more activity than SM-8, SM-14, and SM-22; inhibition of (bactericidal) activity by albumin (bacteria): completely inhibited; potency ranking against gram negative rods (gram negative rods [4]): most potent activity against gram negative rods of all the mimics tested
